Experimental findings from ChEMBL document CHEMBL1201862, “PubChem BioAssay data set” (2004) are described below.

Test systems include MDA-MB-231; UO-31; DU-145; A498; MDA-MB-435; SK-MEL-28; T47D; OVCAR-4; ACHN; SK-MEL-2; SK-OV-3; LOX IMVI; SF-295; SK-MEL-5; BT-549; CCRF-CEM; M14; HOP-62; RXF 393.
Common to all, as to experiment: inhibition of tumour cell growth, NCI panel, 48 h

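Cultured in 96-well plates, cells were exposed to test compound for 48 hours across five concentrations. GI50 is the concentration that inhibits growth by half.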 Active and inactive are the calls of the source. Cut-off read from the data, not from the text of the source: active = GI50 up to about 1.1 µM and inactive = higher. Bounds are passed on as bounds.

Regarding `COc1cc2c(cc1OC)[C@H](C)N1CCc3cc(OC)c(OC)cc3[C@@H]1C2`, the GI50 in the assay on MDA-MB-231, with UO-31, with DU-145, in the assay with A498, with MDA-MB-435 and with SK-MEL-28 was > 100 µM (inactive) in each case. For the same compound, the GI50 in the assay on T47D, in the assay with OVCAR-4, with ACHN, in the assay on SK-MEL-2, with SK-OV-3 and with LOX IMVI was > 100 µM (inactive) each time. Also, the GI50 in the assay with SF-295, in the assay with SK-MEL-5, in the assay with BT-549 and in the assay with CCRF-CEM was > 100 µM (inactive) each time.

`Cn1c(=O)c2c(-c3ccccc3)onc2n(C)c1=O`: the GI50 was 49.9 µM (inactive) in the assay with MDA-MB-231; 19.5 µM (inactive) with UO-31; 16.9 µM (inactive) in the assay on M14; 64.1 µM (inactive) in the assay on A498; 44.5 µM (inactive) in the assay with MDA-MB-435; 23.8 µM (inactive) in the assay on T47D. In addition, the GI50 was 17.1 µM (inactive) with HOP-62; 43.2 µM (inactive) in the assay with OVCAR-4; 31.9 µM (inactive) in the assay on ACHN; 15.8 µM (inactive) in the assay on SK-MEL-2; > 100 µM (inactive) with SK-OV-3; 21.2 µM (inactive) with LOX IMVI. Further, the GI50 is 40.7 µM (inactive) in the assay on SF-295; 21.3 µM (inactive) with RXF 393; 30.7 µM (inactive) in the assay with SK-MEL-5; 17.2 µM (inactive) with BT-549; 22.4 µM (inactive) in the assay with CCRF-CEM.

Take `CC[C@]1(Cc2ccc(OC)c(OC)c2)[C@@H]2C[C@@H](C3OCCO3)ON2O[C@H](OC2CCCC2(c2ccccc2)c2ccccc2)[C@@H]1OC(C)=O` (stereo not given in full): the GI50 is 44.3 µM (inactive) in the assay on MDA-MB-231; 20.6 µM (inactive) in the assay on UO-31; 26.6 µM (inactive) with DU-145; 16.2 µM (inactive) with M14; 21.5 µM (inactive) in the assay on MDA-MB-435; 20.5 µM (inactive) in the assay on SK-MEL-28. Also, the GI50 is 18.7 µM (inactive) in the assay with T47D; 19.6 µM (inactive) in the assay with HOP-62; 18.1 µM (inactive) in the assay on ACHN; 15.7 µM (inactive) with SK-MEL-2; 43.1 µM (inactive) with SK-OV-3; 23.3 µM (inactive) in the assay with LOX IMVI. In addition, the GI50 with SF-295 was 21.2 µM (inactive); in the assay with SK-MEL-5, 18.5 µM (inactive); in the assay with BT-549, 25.6 µM (inactive); with CCRF-CEM it was 18.7 µM (inactive).

For the compound `OCCN(/N=C\c1ccc2ccccc2c1)C1=NCCN1`, the GI50 is 12.8 µM (inactive) in the assay with MDA-MB-231; 54.7 µM (inactive) in the assay on UO-31; 31.6 µM (inactive) with DU-145; 18.6 µM (inactive) with M14; 16.9 µM (inactive) with MDA-MB-435; 19.3 µM (inactive) in the assay on SK-MEL-28. In addition, the GI50 in the assay with T47D is 29.6 µM (inactive); in the assay with HOP-62, 42.6 µM (inactive); in the assay on OVCAR-4 it was 30.8 µM (inactive); in the assay with ACHN it was 29.1 µM (inactive); with SK-MEL-2, 20.3 µM (inactive); in the assay with SK-OV-3, 47.9 µM (inactive). The GI50 in the assay on LOX IMVI is 16.3 µM (inactive); with SF-295, 31 µM (inactive); with RXF 393, 11.4 µM (inactive); in the assay with SK-MEL-5, 18.3 µM (inactive); in the assay on BT-549 it was 42.8 µM (inactive); with CCRF-CEM it was 27.6 µM (inactive).

`CC(=O)O[C@H]1/C(=C/c2ccc(N(C)C)cc2)C[C@H]2[C@@H]3CC=C4C[C@@H](N5CCCC5)CC[C@]4(C)[C@H]3CC[C@]12C`: the GI50 in the assay on MDA-MB-231, in the assay with UO-31, in the assay on DU-145, with M14, with A498 and in the assay with SK-MEL-28 was > 100 µM (inactive) in each case. Besides, the GI50 in the assay with T47D was 65.6 µM (inactive); in the assay with HOP-62, > 100 µM (inactive); in the assay on ACHN, > 100 µM (inactive); in the assay with SK-MEL-2, > 100 µM (inactive); with SK-OV-3, > 100 µM (inactive); with LOX IMVI, 35.6 µM (inactive). Also, the GI50 with SF-295, in the assay with RXF 393, with SK-MEL-5 and in the assay on BT-549 was > 100 µM (inactive) each time.

Consider `Cc1cc(C2(O)C=C(C(C)(C)C)C(=O)C(C(C)(C)C)=C2)c(C)cc1C1(O)C=C(C(C)(C)C)C(=O)C(C(C)(C)C)=C1`, for which the GI50 in the assay on MDA-MB-231, in the assay on UO-31, with DU-145, with M14, with SK-MEL-28 and in the assay with T47D was > 100 µM (inactive) each time. Further, the GI50 with HOP-62, in the assay on OVCAR-4, in the assay with ACHN, in the assay on SK-MEL-2, in the assay with SK-OV-3 and with LOX IMVI was > 100 µM (inactive) in each case. In addition, the GI50 with SF-295, with SK-MEL-5, in the assay on BT-549 and in the assay with CCRF-CEM was > 100 µM (inactive) each time.

Take `COC(=O)c1c(C)cccc1/C=C1\Cc2cc(C)cc(C)c2C1=O`: the GI50 with MDA-MB-231 was > 100 µM (inactive); with UO-31, > 100 µM (inactive); in the assay on DU-145, > 100 µM (inactive); with M14, 55 µM (inactive); with A498 it was 51.2 µM (inactive); in the assay with SK-MEL-28 it was > 100 µM (inactive). In addition, the GI50 in the assay on T47D was 31.7 µM (inactive); in the assay on HOP-62, 12 µM (inactive); in the assay with OVCAR-4, 9.75 µM (inactive); in the assay on ACHN, 27.9 µM (inactive); with SK-MEL-2, 13.2 µM (inactive); in the assay with LOX IMVI, > 100 µM (inactive). Also, the GI50 is 21.7 µM (inactive) with SF-295; 20.7 µM (inactive) with RXF 393; 32.3 µM (inactive) in the assay on SK-MEL-5; > 100 µM (inactive) with BT-549; > 100 µM (inactive) with CCRF-CEM.

Take `Clc1ccc(OCc2nnc(CCCCCCCCc3nnc(COc4ccc(Cl)cc4)n3Nc3ccccc3)n2Nc2ccccc2)cc1`: the GI50 in the assay on MDA-MB-231 was 26.2 µM (inactive); in the assay on UO-31 it was 2.04 µM (inactive); in the assay with DU-145 it was 19.1 µM (inactive); in the assay on M14, 2.08 µM (inactive); with A498 it was 62.5 µM (inactive); in the assay on MDA-MB-435, 2.22 µM (inactive). Further, the GI50 in the assay on SK-MEL-28 was 4.62 µM (inactive); with T47D, 22.1 µM (inactive); in the assay on HOP-62, 1.08 µM (active); with OVCAR-4 it was 15.7 µM (inactive); in the assay on ACHN, 1.16 µM (inactive); with SK-MEL-2, 16.1 µM (inactive). In addition, the GI50 was 17.1 µM (inactive) in the assay with SK-OV-3; 21.7 µM (inactive) in the assay with LOX IMVI; 0.145 µM (active) in the assay with SF-295; 21.8 µM (inactive) with RXF 393; 0.463 µM (active) in the assay on SK-MEL-5; 11.6 µM (inactive) with BT-549.

Take `C[N+](C)(C)CCOP(=O)([O-])OCCNC(=O)c1ccc2ccccc2c1`: the GI50 with MDA-MB-231, in the assay with UO-31, with DU-145, in the assay with M14, in the assay with MDA-MB-435 and in the assay with SK-MEL-28 was > 100 µM (inactive) each time. The GI50 in the assay on T47D, in the assay on HOP-62, in the assay with ACHN, with SK-OV-3, with LOX IMVI and in the assay on SF-295 was > 100 µM (inactive) each time. Further, the GI50 in the assay with RXF 393 is > 100 µM (inactive); with SK-MEL-5 it was > 100 µM (inactive); in the assay on BT-549 it was 2.05 µM (inactive); in the assay with CCRF-CEM, > 100 µM (inactive).

Turning to `Cc1cc(NS(=O)(=O)c2ccc(NC(=O)c3ccc4nc5ccccc5c(Nc5ccc(S(=O)(=O)Nc6cc(C)on6)cc5)c4c3)cc2)no1`, the GI50 with MDA-MB-231, in the assay on UO-31, in the assay on DU-145, in the assay with M14, in the assay with MDA-MB-435 and in the assay on SK-MEL-28 was > 50 µM (inactive) each time. Also, the GI50 in the assay on T47D, in the assay with HOP-62, in the assay on OVCAR-4, with ACHN, in the assay with SK-MEL-2 and with SK-OV-3 was > 50 µM (inactive) in each case. For the same compound, the GI50 in the assay on LOX IMVI, in the assay with SF-295, in the assay on RXF 393, in the assay on SK-MEL-5, with BT-549 and in the assay with CCRF-CEM was > 50 µM (inactive) each time.

As to `C/C(=N\NC1=NCCN1)c1cn(C2=NCCN2)nc1C`, the GI50 in the assay on MDA-MB-231, with UO-31, in the assay with DU-145, in the assay on M14, in the assay with A498 and with MDA-MB-435 was > 100 µM (inactive) throughout. In addition, the GI50 in the assay on SK-MEL-28, in the assay on T47D, in the assay with HOP-62, with OVCAR-4, in the assay on ACHN and in the assay with SK-MEL-2 was > 100 µM (inactive) throughout. In addition, the GI50 in the assay on SK-OV-3 is > 100 µM (inactive); in the assay on SF-295 it was > 100 µM (inactive); in the assay on RXF 393 it was 72.1 µM (inactive); with SK-MEL-5 it was > 100 µM (inactive); in the assay on BT-549 it was > 100 µM (inactive).
